Reference: US20060019890A1, “Method for treating cardiac remodeling following myocardial injury” (priority 2004, published 2006)

Legend:
[1] = test system: human cardiac fibroblasts; assay: Real-time RT-PCR gene expression in cardiac fibroblasts; format: cell-based; settings: for ACTA2 expression level relative to control / CTGF expression level relative to control / Collagen 1 expression level relative to control / Fibronectin expression level relative to control / IL6 expression level relative to control / IL11 expression level relative to control / PTGS2/COX-2 expression level relative to control / SERPINE1/PAI-1 expression level relative to control / TIMP3 expression level relative to control: normalized to 18s RNA
Description: Real-time RT-PCR^18 was performed in a two-step manner. cDNA synthesis and real-time detection were carried out in a PTC-100™ Thermal Cycler (MJ Research Inc, Waltham, Mass.) and an ABI Prism™ 7700 Sequence Detection System (Applied Biosystems, Foster City, Calif.), respectively. Random hexamers (Qiagen, Valencia, Calif.) were used to generate cDNA from 200 ng RNA as described in Applied Biosystems User Bulletin #2. TaqMan™ PCR Core Reagent Kit or TaqMan™ Universal PCR Master Mix (Applied Biosystems) were used in subsequent PCR reactions according to the manufacturer's protocols. Relative quantitation of gene expression was performed using the relative standard curve method. All real-time RT-PCR reactions were performed in triplicate.
Sequence specific primers and probes were designed using Primer Express Version 2 software (Applied Biosystems). Sequences of primers and probes can be found in Table 1 below. Expression levels were normalized to 18S rRNA. The selection of 18S rRNA as an endogenous control was based on an evaluation of the ΔCT levels (Applied Biosystems document # 4308134C) of 6 “housekeeping” genes: Cyclophilin A, 18S, GAPDH, β-actin, β-Glucuronidase, and Hypoxanthine Guanine Phosphoribosyl Transferase.

[2] = test system: human cardiac fibroblasts; assay: Western blot analysis of Collagen 1 and Fibronectin protein; format: cell-based; settings: 48 h
Description: (§1) Lysis was induced with 0.2 ml of buffer containing 20 mM Tris-HCL, pH 7.9, 137 mM NaCl, 1% Triton X-100, 5 mM EDTA, 10 mM NaF, 1 mM β-glycerophosphate, and protease inhibitor cocktail. The protein concentration of each lysate was measured using coomassie protein reagent from PIERCE. Twenty μg of protein from each sample was loaded and electrophoresed on 4-12% gradient polyacrylamide gels and electrophoretically transferred to nitrocellulose membranes (Invitrogen, San Diego, Calif.). The membranes were incubated with rabbit anti-human Collagen 1 antibody (Cortex Biochem, San Leandro, Calif.), HRP-conjugated anti-human Fibronectin antibody, or goat anti-Actin antibody (Santa Cruz Biotehnology, Santa Cruz, Calif.) in TBST buffer containing 20 mM Tris-HCl, pH 7.5, 150 mM NaCl, 0.1% Tween-20, and 5% nonfat dried milk at 4° C. for ˜16 h. For ERK phosphorylation, cells were treated with 0.5 μmol/L BNP in the presence of 1 μmol/L KT5823 or 10 μmol/L U0126 for 15 min; the membranes were incubated with rabbit anti-human phospho-ERK ½ antibody or rabbit anti-human ERK ½ antibody (Cell Signaling, Beverly, Mass.). For secondary antibody detection, membranes were incubated with HRP-conjugated anti-rabbit antibody or anti-goat antibody at room temperature for 1 h and washed 3 times with TBST buffer. The blots were soaked in ECL Plus reagent for 5 min and exposed to KODAK x-ray film. Signals were identified and quantified using a Typhoon Scanner and Densitometer from Amersham Biosciences (Piscataway, N.J.). Data was analyzed by ANOVA using the Newman-Keuls test to assess significance. Results cGMP Production in Cardiac Fibroblasts

ERK = assay: Western analysis of ERK phosphorylation; format: cell-based, human; settings: BNP 0.5 μmol/L, 15 min
Description: as §1

[3] = Degradation of added BNP in cardiac fibroblast culture (immunoreactive assays and cGMP stimulation cell bioassays); format: in vitro ADME; settings: human, primary human cardiac fibroblasts in culture, within 24 h, read-out: added BNP metabolized
Description: Two lots of primary human cardiac fibroblasts, derived from a person (lot 1) and a person (lot 2), were provided by Cambrex Bio Science (Walkersville, Md.). […] Cells at passage 3-5 were cultured in FGM containing 15% FBS. At confluence, cells were split and cultured in 6-well plates for 24 h.

acute myocardial injury [4] = assay: Systolic blood pressure (tail cuff) in L-NAME/AngII acute myocardial injury model; format: in vivo; settings: rat BNP i.v. infusion day 10 to day 14
Description: (§2) In a related study, an in vivo model for acute myocardial injury was used to explore the effects of BNP. Male Sprague Dawley rats ranging in weight from 225 to 250 gm were utilized. Acute myocardial injury was induced by administration of Nω-nitro-L-arginine methyl ester (L-NAME, 40 mg/kg/day)salt (1% NaCl) plus angiotensin II (AngII, 0.5 mg/kg/day) in the rats. The L-NAME was administered in drinking water from day 1 to day 14. Angiotensin II was continuously infused subcutaneously with an osmotic pump from day 11 to day 14. Rat BNP ([…]) was intravenously infused through an external infusion pump from day 10 to day 14.
(§3) Systolic blood pressure, plasma level of aldosterone, cardiac function heart/body weight ration and gene expression in the heart were analyzed. Systolic blood pressure was monitored via tail cuff technique with an IITC blood pressure recording system. Cardiac function was monitored via a Millar ARIA Pressure Volume Conductance System with an 1.4 F catheter. Gene expression as referenced above with results provided in FIG. 12 were monitored by RT-PCR with an ABI Prism™ 7700 sequence detection system.

[5] = Plasma level of aldosterone in L-NAME/AngII acute myocardial injury model; format: in vivo; settings: L-NAME/AngII rats, rat BNP i.v. infusion day 10 to day 14
Description: as §2, §3

acute myocardial injury [6] = assay: Cardiac function (Millar pressure volume conductance system) in L-NAME/AngII acute myocardial injury model; format: in vivo, rat; settings: L-NAME/AngII rats
Description: as §2, §3

acute myocardial injury [7] = assay: Heart/body weight ratio in L-NAME/AngII acute myocardial injury model; format: in vivo; settings: L-NAME/AngII rats, rat BNP i.v. infusion day 10 to day 14
Description: as §2, §3

acute myocardial injury [8] = assay: Gene expression in the heart by RT-PCR in L-NAME/AngII acute myocardial injury model; format: in vivo, rat; settings: stimulated by L-NAME plus angiotensin II
Description: In a related study, a gene microassay profile of rat heart tissue was conducted. Fibrotic and extracellular matrix associated genes were stimulated in vivo by L-NAME plus angiotensin II.
as §2, §3

[9] = test system: human cardiac fibroblasts; assay: cDNA microarray gene expression profiling of TGFβ- and/or BNP-treated cardiac fibroblasts
Description: Two lots of primary human cardiac fibroblasts, derived from a person (lot 1) and a person (lot 2), were provided by Cambrex Bio Science (Walkersville, Md.). Cells stained positive for α-smooth muscle actin and vimenfin antibodies corroborating their identity as cardiac fibroblasts and myofibroblasts. Both lots were used for the real-time RT-PCR studies; lot 1 was used for the microarray analysis. Cells at passage 3-5 were cultured in FGM containing 15% FBS. At confluence, cells were split and cultured in 6-well plates for 24 h.
Gene expression profiles were determined from cDNA microarrays containing 8,600 elements derived from clones isolated from normalized cDNA libraries or purchased from ResGen (Invitrogen Life Technologies, Carlsbad, Calif.). DNA for spotting was generated by PCR amplification using 5′amino-modified primers (BD Biosciences Clontech, Palo Alto, Calif.) derived from flanking vector sequences. Amplified DNA was purified in a 96-well format using Qiagen's Qiaquick columns (Valencia, Calif.) according to the manufacturer's recommendations. Samples were eluted in Milli-Q purified water, dried to completion and resuspended in 7 μl of 3×SSC. A fluorescent assay using PicoGreen (Molecular Probes, Eugene, Oreg.) was randomly performed on 12% of the PCR products to determine the average yield after purification; yields were ˜1.5 μg of DNA which corresponds to a concentration of 214 μg/ml. Purified DNA was arrayed from 384-well microtiter plates onto lysine-coated glass slides using an OmniGrid II microarrayer (GeneMachines, San Carlos, Calif.). After printing, DNA was cross-linked to the glass with 65 mjoules UV irradiation and reactive amines were blocked by treatment with succinic anhydride.
Total RNA was extracted from cells using Qiagen's RNeasy kit; two wells from a 6 well plate were pooled to yield a total of 4×10^5 cells per treatment. RNA was amplified using a modified Eberwine protocol^5 that incorporated a polyA tail into the amplified RNA. Fluorescently-labeled cDNA probes were generated by reverse transcription of 4 μg of RNA with SuperScript II (Invitrogen Life Technologies, Carlsbad, Calif.) using anchored dT primers in the presence of Cy3 or Cy5 dUTP (Amersham, Piscataway, N.J.). Labeled cDNA probe pairs were precipitated with ethanol and purified using Qiaquick columns. Twenty μg each of poly(A) DNA, yeast tRNA, and human Cot1 DNA (Applied Genetics, Melbourne, Fla.) was added to the eluant. The samples were dried to completion and resuspended in 12.5 μl 3×SSC, 0.1% SDS. Probes were heated to 95° C. for 5 minutes, applied to the arrays under a 22 mm^2 cover slip and allowed to hybridize for at least 16 h at 65° C. The arrays were washed at 55° C. for 10 minutes in 2×SSC, 0.1% SDS, followed by two washes at room temperature in 1×SSC (10 min) and 0.2×SSC (15 min). Hybridization of each fluorophore was quantified using an Axon GenePix 4000A scanner.
Differential expression values were expressed as the ratio of the median of background-subtracted fluorescent intensity of the experimental RNA to the median of background-subtracted fluorescent intensity of the control RNA. For ratios greater than or equal to 1.0, the ratio was expressed as a positive value. For ratios less than 1.0, the ratio was expressed as the negative reciprocal (i.e., a ratio of 0.5=−2.0). Median ratios were normalized to 1.0 using two pools of 3000 randomly chosen cDNAs in each pool. Six replicates of each of the two pools were printed in 4 evenly distributed blocks of the array. Expression data was rejected if neither channel produced a signal of at least 2.0-fold over background. Differential expression ratios were determined as the mean of the two values from dye-swapped duplicates.

[10] = rat BNP i.v. infusion day 10 to day 14
[11] = TGFβ-stimulated cells, microarray

CC[C@H](C)[C@@H]1NC(=O)[C@H](CCCNC(=N)N)NC(=O)[C@H](CC(=O)O)NC(=O)[C@H](CCSC)NC(=O)[C@H](CCCCN)NC(=O)[C@H](CCCNC(=N)N)NC(=O)CNC(=O)[C@H](Cc2ccccc2)NC(=O)[C@@H](NC(=O)CNC(=O)[C@H](CO)NC(=O)CNC(=O)[C@H](CCC(N)=O)NC(=O)[C@@H](NC(=O)[C@H](CCSC)NC(=O)[C@H](CCCCN)NC(=O)[C@@H]2CCCN2C(=O)[C@@H](N)CO)C(C)C)CSSC[C@@H](C(=O)N[C@@H](CCCCN)C(=O)N[C@H](C(=O)N[C@@H](CC(C)C)C(=O)N[C@@H](CCCNC(=N)N)C(=O)N[C@@H](CCCNC(=N)N)C(=O)N[C@@H](Cc2c[nH]cn2)C(=O)O)C(C)C)NC(=O)CNC(=O)[C@H](CC(C)C)NC(=O)CNC(=O)[C@H](CO)NC(=O)[C@H](CO)NC(=O)[C@H](CO)NC(=O)[C@H](CO)NC1=O [BNP, brain natriuretic peptide]
effect on TGFβ induction of Collagen 1 mRNA levels ([1]; 6, 24 and 48 h): blocked
ACTA2 expression level relative to control ([1]; 6 h, lot 1): 0.8 ± 0.12
CTGF expression level relative to control ([1]; 6 h, lot 1): 0.9 ± 0.24
Collagen 1 expression level relative to control ([1]; 6 h, lot 1): 1.0 ± 0.05
Fibronectin expression level relative to control ([1]; 6 h, lot 1): 0.9 ± 0.19
IL6 expression level relative to control ([1]; 6 h, lot 1): 0.9 ± 0.02
IL11 expression level relative to control ([1]; 6 h, lot 1): 1.1 ± 0.04
PTGS2/COX-2 expression level relative to control ([1]; 6 h, lot 1): 1.2 ± 0.22
SERPINE1/PAI-1 expression level relative to control ([1]; 6 h, lot 1): 0.7 ± 0.08
TIMP3 expression level relative to control ([1]; 6 h, lot 1): 0.9 ± 0.11
ACTA2 expression level relative to control ([1]; 24 h, lot 1): 0.9 ± 0.11
CTGF expression level relative to control ([1]; 24 h, lot 1): 1.0 ± 0.29
Collagen 1 expression level relative to control ([1]; 24 h, lot 1): 1.1 ± 0.13
Fibronectin expression level relative to control ([1]; 24 h, lot 1): 1.0 ± 0.10
IL6 expression level relative to control ([1]; 24 h, lot 1): 0.9 ± 0.21
PTGS2/COX-2 expression level relative to control ([1]; 24 h, lot 1): 1.2 ± 0.38
SERPINE1/PAI-1 expression level relative to control ([1]; 24 h, lot 1): 0.7 ± 0.01
TIMP3 expression level relative to control ([1]; 24 h, lot 1): 1.0 ± 0.12
ACTA2 expression level relative to control ([1]; 24 h, lot 2): 0.9 ± 0.25
Fibronectin expression level relative to control ([1]; 24 h, lot 2): 0.9 ± 0.24
IL6 expression level relative to control ([1]; 24 h, lot 2): 0.9 ± 0.07
IL11 expression level relative to control ([1]; 24 h, lot 2): 1.0 ± 0.05
SERPINE1/PAI-1 expression level relative to control ([1]; 24 h, lot 2): 0.7 ± 0.11
TIMP3 expression level relative to control ([1]; 24 h, lot 2): 0.7 ± 0.09
effect on TGFβ-induced Fibronectin mRNA expression ([1]; 48 h): inhibited
ACTA2 expression level relative to control ([1]; 48 h, lot 1): 1.0 ± 0.03
Collagen 1 expression level relative to control ([1]; 48 h, lot 1): 1.2 ± 0.03
Fibronectin expression level relative to control ([1]; 48 h, lot 1): 1.1 ± 0.04
IL6 expression level relative to control ([1]; 48 h, lot 1): 0.9 ± 0.03
IL11 expression level relative to control ([1]; 48 h, lot 1): 0.7 ± 0.10
PTGS2/COX-2 expression level relative to control ([1]; 48 h, lot 1): 1.0 ± 0.12
SERPINE1/PAI-1 expression level relative to control ([1]; 48 h, lot 1): 0.9 ± 0.00
TIMP3 expression level relative to control ([1]; 48 h, lot 1): 0.9 ± 0.00
ACTA2 expression level relative to control ([1]; 48 h, lot 2): 0.7 ± 0.11
Collagen 1 expression level relative to control ([1]; 48 h, lot 2): 1.0 ± 0.01
Fibronectin expression level relative to control ([1]; 48 h, lot 2): 1.0 ± 0.11
IL6 expression level relative to control ([1]; 48 h, lot 2): 0.9 ± 0.06
IL11 expression level relative to control ([1]; 48 h, lot 2): 0.8 ± 0.09
PTGS2/COX-2 expression level relative to control ([1]; 48 h, lot 2): 1.0 ± 0.06
SERPINE1/PAI-1 expression level relative to control ([1]; 48 h, lot 2): 0.8 ± 0.03
TIMP3 expression level relative to control ([1]; 48 h, lot 2): 0.6 ± 0.00
effect on TGFβ-induced Fibronectin protein expression [2]: inhibited
inhibition of TGFβ-stimulated Collagen 1 protein synthesis [2]: ~75%
ERK phosphorylation (ERK): activates ERK
metabolised at 24 h [3]: 50%
effect on systolic blood pressure raised by L-NAME+AngII (acute myocardial injury [4]): no effect
plasma aldosterone [5]: 6.6 ± 0.16 ng/mL
effect on cardiac output (acute myocardial injury [6]): increases
effect on heart rate (acute myocardial injury [6]): no effect
effect on maximum dP/dt (acute myocardial injury [6]): increased
effect on minimum dP/dt (acute myocardial injury [6]): increased
arterial elastance (acute myocardial injury [6]; [10]): 42.6±5.1 mmHg/ul
diastolic volume (acute myocardial injury [6]; [10]): 22.4 ± 1.1 µL
ejection fraction (acute myocardial injury [6]; [10]): 20.4±2.4%
stroke volume (acute myocardial injury [6]; [10]): 4.74 ± 0.73 µL
stroke work (acute myocardial injury [6]; [10]): 531.5±99.1 mmH*ul
heart/body weigh ratio (acute myocardial injury [7]): 0.0029±0.001
mRNA expression for collagen I in rat heart (acute myocardial injury [8]): markedly reduced
mRNA expression for collagen III in rat heart (acute myocardial injury [8]): markedly reduced
mRNA expression for fibronectin in rat heart (acute myocardial injury [8]): markedly reduced
TGFβ-regulated gene expression events opposed ([9]; 24 h): ~88%
TGFβ-regulated gene expression events opposed ([9]; 48 h): ~85%
effect on TGFβ-induction of PTGS2 (COX2), TNFAIP6 and TNFSF4 [9, 11]: reversed
effect on TGFβ-regulated cell proliferation genes (PDGFA, IGFBP10, IGF1, PTHLH, CDC25B, CUL5) [9, 11]: opposed
effect on fibrosis and ECM gene cluster up-regulated by TGFβ [9, 11]: down-regulated
effect on gene expression in unstimulated human cardiac fibroblasts ([9]; microarray, 24 and 48 h): no significant effects
